What was measured:
[1] = tested on: C6; assay: Survival rates when cells were incubated for 5 hr without light; assay type: functional, Rattus norvegicus
[2] = Dose required to induce 90% death rate for C6 glioma cells from rats; assay type: functional, Rattus norvegicus
[3] = tested on: HT-29; assay: Compound was tested for in vivo photo-sensitizing activity on human colon adenocarcinoma cell (HT-29); assay type: functional

Oc1cc(O)cc(-c2c3nc(cc4ccc([nH]4)c(-c4cc(O)cc(O)c4)c4ccc(cc5nc2CC5)[nH]4)C=C3)c1
Survival [1]: 100% | LD90 [2]: 4.8 µg/mL | Inhibition [3]: 40%
